The subject of one test is heart failure rat model. As to the kind of experiment: Cardiac contractility in vivo in heart failure rat model (MI rat model). The settings on record: for MI Rat Model dP/dtmax (%): in vivo, heart failure (MI) rat model, acute administration for 30 min; for cardiac contractility as measured by dP/dtmax (derivative of left ventricular pressure): male Lewis rats, heart failure by ligation of left descending coronary artery, ejection fraction <35%, dosed acutely for 30 min. On the procedure: Male Lewis rats (Charles River, USA) at 2-3 months of age were used for the study. […] APJ agonists were administered dose dependently acutely for a period of 30 min.

Test [1] has as its system isolated perfused rat hearts. As to the kind of experiment: Load independent inotropic effects, ex vivo assay (isolated perfused rat hearts, Langendorff). Conditions: percent change over vehicle. The source says: Evidence for Load Independent Inotropic Effects with APJ Agonists using Ex Vivo Assay (Isolated Perfused Rat Hearts)
Naive Sprague Dawley® SD rats (Harlan laboratories (Livermore, Calif. USA)) were anesthetized and hearts were excised followed by cannulation in the Langendorff apparatus (Harvard apparatus, Holliston, Mass. USA) via aorta. […] The pressure of the solution causes the aortic valve to shut and the perfusate is then forced into the ostium and the coronary vessels. This allows the heart to beat for several h. A balloon was inserted into the left ventricle (LV) to measure dP/dtmax (derivative of left ventricular pressure) as an index of cardiac contractility. The APJ agonist was perfused constantly in a dose dependent manner into the heart to examine cardiac contractility.

In another test the target is human APJ receptor (Homo sapiens (Human), UniProt P35414). Briefly: biochemical. The format is biochemical. The settings on record: read-out: Activity hAPJ SPA EC50 IP. Summed up:
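Agonist-stimulated [35S]GTPγS (0.2 nM) binding was read by SPA after 90 min at room temperature. Buffer: 20 mM HEPES pH 7.5 with 5 mM MgCl2, 200 mM NaCl, 3 μM GDP, 0.1% BSA; membranes were from a stable human APJ CHO line. EC50 values are averages of independent runs, fitted by non-linear regression.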

The subject of the next test is heart failure rats. Briefly: Cardiac function with APJ small molecule agonists in the presence of ACE inhibitor captopril in heart failure rats in vivo. Set-up: species or system rat. Conditions: captopril alone, acute settings. An excerpt:
The interaction between […] (ACE2) and Apelin biology is complicated. To investigate the interaction between the Apelin-APJ and ACE signalling pathways, we examined the improvement in cardiac function with APJ small molecule agonists in the presence of ACE inhibitor captopril in heart failure rats in vivo.

The subject of test [2] is isolated perfused rat hearts. As to the kind of experiment: Langendorff isolated perfused rat heart (left ventricular dP/dt). Conditions: ex vivo naive Sprague Dawley rat hearts, Langendorff apparatus, as a function of concentration.
The target in a further test is APJ/AT1R (Homo sapiens (Human), UniProt P30556+P35414). Briefly: IP1 assay (TR-FRET) for allosteric interaction between APJ and AT1R in CHO-K1 APJ/AT1R cells. The class given is cell-based. The settings on record: addition of losartan. Background: In TR-FRET formats the signal depends on donor and acceptor labels being close together.
Sequence of APJ/AT1R (P35414 whole entry, looked up): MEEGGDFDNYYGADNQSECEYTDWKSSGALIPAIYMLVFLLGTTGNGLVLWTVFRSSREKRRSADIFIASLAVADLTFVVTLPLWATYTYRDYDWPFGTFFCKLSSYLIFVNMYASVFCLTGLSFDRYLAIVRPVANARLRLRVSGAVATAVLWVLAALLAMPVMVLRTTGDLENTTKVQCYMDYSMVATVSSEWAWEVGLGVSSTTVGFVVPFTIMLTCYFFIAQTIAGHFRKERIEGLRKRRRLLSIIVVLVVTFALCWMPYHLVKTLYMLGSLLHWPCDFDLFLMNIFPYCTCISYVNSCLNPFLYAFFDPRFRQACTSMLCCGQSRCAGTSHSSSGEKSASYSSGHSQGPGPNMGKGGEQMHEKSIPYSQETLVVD
Sequence of APJ/AT1R (P30556 whole entry, looked up): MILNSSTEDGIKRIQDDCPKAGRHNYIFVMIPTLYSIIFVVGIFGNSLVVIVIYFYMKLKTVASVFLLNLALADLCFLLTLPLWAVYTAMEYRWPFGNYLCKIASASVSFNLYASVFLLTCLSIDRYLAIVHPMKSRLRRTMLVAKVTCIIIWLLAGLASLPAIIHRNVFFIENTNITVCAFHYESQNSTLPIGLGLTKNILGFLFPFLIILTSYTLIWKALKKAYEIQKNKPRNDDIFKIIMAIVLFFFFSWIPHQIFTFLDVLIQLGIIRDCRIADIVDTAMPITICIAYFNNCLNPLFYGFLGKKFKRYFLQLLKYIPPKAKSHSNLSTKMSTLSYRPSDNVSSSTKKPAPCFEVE

Sequence of human APJ receptor (P35414 whole entry): as the sequence (P35414 whole entry, looked up) above
Protocol for APJ/AT1R: Single and double stable recombinant cell lines were generated for human APJ and the AT1R receptor in CHO K1 cells tagged either with FLAG or hemagglutinin (HA) tag. Briefly, the CHO-K1 APJ/AT1R cells were seeded in culture medium of DMEM-F12 and 10% FBS at a density of 15 k/well in a 96 well plate overnight. The next day, the culture medium was replaced with medium containing no serum for 4 hours. The compound AngII at a range of concentrations (1 pM-10 μM) with or without different concentrations of APJ agonists were diluted in stimulation buffer and added to the cell plate. The plate was sealed and incubated for 1 hour. This was followed by addition of IP-d2 conjugate followed by europium cryptate antibody conjugate into the wells. The plate was sealed, followed with incubation for 2 hours at room temperature. Time-resolved fluorescence resonance energy (TR-FRET) at 620 nm and 665 nm was measured after 2 hours with an Envision reader. The signal ratios and delta F were calculated and the amount of IP1 produced was inversely proportional to the TR-FRET ratio, 665/620 nm.

For the compound `COc1cccc(OC)c1-n1c(NS(=O)(=O)[C@H](C)[C@@H](OC)c2ncc(Cl)cn2)nnc1-c1cncc(C)c1` (single isomer, unassigned) [Example 557.0], the “MI Rat Model dP/dtmax (%)” value in the test with heart failure rat model was “No effect”. Besides, in test [1], the “Isolated Heart Assay dP/dtmax (%)” value amounted to 17.0% and the “Isolated Heart Assay dP/dtmin (%)” value is 20.0%. Further, the EC50 on human APJ receptor was determined as 0.31 nM.

For the compound `C[C@H](CS)C(=O)N1CCC[C@H]1C(=O)O` [Captopril, captopril], in the test with heart failure rats, the contractility result is “does not show a marked improvement” and the ejection fraction entry is listed as “does not show a marked improvement”.

Turning to `COc1cccc(OC)c1-n1c(NS(=O)(=O)[C@@H](C)[C@H](O)c2ncc(C)cn2)nnc1-c1cccc(C)n1` [Example 99.0, (1R,2S)-N-(4-(2,6-dimethoxyphenyl)-5-(6-methylpyridin-2-yl)-4H-1,2,4-triazol-3-yl)-1-hydroxy-1-(5-methylpyrimidin-2-yl)propane-2-sulfonamide], in the test on heart failure rat model, the “cardiac contractility as measured by dP/dtmax (derivative of left ventricular pressure)” value (from here on “cardiac contractility as measured”) is “increase in cardiac contractility”. In addition, in test [2], the “left ventricular dP/dtmax (load independent cardiac contractility)” value (shortened to “left ventricular dP/dtmax”) was “increases load independent cardiac contractility” and the “left ventricular dP/dtmin (load independent cardiac relaxation)” value (shortened to “left ventricular dP/dtmin”) was “increases load independent cardiac relaxation”. For the same compound, the EC50 at human APJ receptor was determined as 2.3 nM.

Regarding `CCO[C@H](c1ncc(C)cn1)[C@H](C)S(=O)(=O)Nc1nnc(-c2cccnc2)n1-c1c(OC)cccc1OC` [Example 109.0, (1R,2S)-N-(4-(2,6-dimethoxyphenyl)-5-(pyridin-3-yl)-4H-1,2,4-triazol-3-yl)-1-ethoxy-1-(5-methylpyrimidin-2-yl)propane-2-sulfonamide], in the test with heart failure rat model, the “MI Rat Model dP/dtmax (%)” value turned out to be 20% and the “cardiac contractility as measured” value is “increase in cardiac contractility”. In test [2], the “left ventricular dP/dtmax” value was “increases load independent cardiac contractility” and the “left ventricular dP/dtmin” value was “increases load independent cardiac relaxation”. Also, in test [1], the “Isolated Heart Assay dP/dtmax (%)” value is given as 15% and the “Isolated Heart Assay dP/dtmin (%)” value is 25%. In addition, the half-maximal effective concentration (EC50) on human APJ receptor is 0.85 nM.

Consider `COc1cccc(OC)c1-n1c(NS(=O)(=O)[C@@H](C)[C@H](C)c2ncc(C)cn2)nnc1-c1cncc(C)c1` [Example 263.0, (2S,3R)—N-(4-(2,6-dimethoxyphenyl)-5-(5-methylpyridin-3-yl)-4H-1,2,4-triazol-3-yl)-3-(5-methylpyrimidin-2-yl)butane-2-sulfonamide], for which, in the test with heart failure rat model, the “cardiac contractility as measured” value is “increase in cardiac contractility”. In addition, in test [2], the “left ventricular dP/dtmax” value is recorded as “increases load independent cardiac contractility” and the “left ventricular dP/dtmin” value is recorded as “increases load independent cardiac relaxation”.

For the compound `COc1cccc(OC)c1-n1c(NS(=O)(=O)[C@@H](C)[C@H](C)c2ncc(C)cn2)nnc1-c1cccnc1` [Example 586.0, (2S,3R)—N-(4-(2,6-dimethoxyphenyl)-5-(3-pyridinyl)-4H-1,2,4-triazol-3-yl)-3-(5-methyl-2-pyrimidinyl)-2-butanesulfonamide], the “cardiac contractility as measured” value with heart failure rat model is reported as “increase in cardiac contractility”. For the same compound, in test [2], the “left ventricular dP/dtmax” value was “increases load independent cardiac contractility” and the “left ventricular dP/dtmin” value is “increases load independent cardiac relaxation”. Besides, the EC50 on human APJ receptor turned out to be 0.3 nM.

Take `CCCCc1nc(Cl)c(CO)n1Cc1ccc(-c2ccccc2-c2nn[nH]n2)cc1` [losartan]: the “positive cooperativity induced by APJ small molecule agonists in the presence of AngII” value at APJ/AT1R is reported as “relieved this cooperativity”.

By EC50 is commonly meant the concentration at which the effect is half-maximal.
